{"source": "ChEMBL document CHEMBL1138491", "about": "“An innovative method to study target protein-drug interactions by mass spectrometry” (J Med Chem, 2009)", "biological_target": "T1, Peroxisome proliferator-activated receptor alpha (Homo sapiens, UniProt Q07869)", "T1 sequence (Q07869 whole entry)": "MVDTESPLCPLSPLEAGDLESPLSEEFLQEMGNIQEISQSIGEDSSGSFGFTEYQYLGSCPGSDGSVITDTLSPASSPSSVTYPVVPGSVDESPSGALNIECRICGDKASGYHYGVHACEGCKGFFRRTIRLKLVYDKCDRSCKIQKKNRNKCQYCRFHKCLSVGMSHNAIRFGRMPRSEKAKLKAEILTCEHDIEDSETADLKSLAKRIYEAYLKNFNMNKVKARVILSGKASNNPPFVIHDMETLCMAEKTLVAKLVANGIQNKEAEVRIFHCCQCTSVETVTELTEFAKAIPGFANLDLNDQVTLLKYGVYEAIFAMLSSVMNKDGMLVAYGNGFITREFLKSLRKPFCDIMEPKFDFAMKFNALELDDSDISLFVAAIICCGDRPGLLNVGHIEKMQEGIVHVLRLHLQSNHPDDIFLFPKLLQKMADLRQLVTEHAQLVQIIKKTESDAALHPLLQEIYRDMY", "test": "Inhibition of PPARalpha receptor", "note": "pIC50: −log10 of the molar value.", "data": [{"smiles": "CCC(=O)NC[C@H](Cc1ccc(OCCc2nc(-c3ccccc3)oc2C)cc1)N/C(C)=C\\C(=O)c1ccc(C(F)(F)F)cc1", "values": [{"measurement": "pIC50", "result": 6.62}]}]}
